Entries after “also recorded” stand apart in the source; their conditions may differ. Where two headings read alike, the source gives them in different places.
Experiments:
ACS1028-ECs [1] = experiment: Cell survival of purified iPSC-ECs by light microscopy cell counting / Trypan blue; assay type: cell-based; conditions: for cell survival: serial passaging
Description: There were three biological replicates for each group in each experiment, unless otherwise specified. For MitoTracker quantification, total fluorescence signal for the area was measured in Fiji and divided by the number of nuclei present. This was done for 5 fields of view (technical replicates) and averaged to generate a data point for a given biological replicate. For the DAF-FM reduction measurements for NO production, a given experimental condition was plated into 3 wells of a 96 well plate. For TEM analysis, each biological sample was imaged in a minimum of 5 locations. Three representative images from each condition were utilized for quantifying autolysosomes per high power field (HPF) in each of two separate experiments. For light microscopy images, cells were manually counted from three distinct areas of a given experimental condition on two separate occasions. All data wereanalyzed with one-way ANOVA with a post-hoc Tukey test in IBM SPSS Statistics for Macintosh, version 27 (IBM Corp., Armonk, N.Y., USA). A p value of <0.05 was considered significant, where * represent comparisons between the specified groups.
(§1) Experiments were conducted to determine whether inducing autophagy in iPSC-ECs overcomes the premature senescence phenomenon. […] Due to the loss of proliferating cells in the control culture, the experiment was terminated at passage 3.
(§2) To assess whether the effect of Rg2 on proliferation is mediated through autophagy, ACS1028-ECs was administered with 200 μM Rg2 and SBI-0206965 to block ULK1 kinase at varying concentrations. Cell survival was assessed by counting the number of cells per high power field by light microscopy, which diminished over serial passages in the DMSO-treated vehicle-control condition.

LC3-II = experiment: Western blotting of LC3-II (normalized to GAPDH) in ACS1028-EC lysate; assay type: cell-based, human; conditions: ACS1028-ECs
Description: Western blotting was performed using a modified Novus Biological protocol (NB100-2220) with 10%, 12%, 14% or 4-20% gradient SDS-PAGE gels. Cells were collected and lysed with RIPA buffer plus PMSF protease inhibitor. Cell lysate was centrifuged at high speed for 10 minutes at 4° C., and the supernatant was transferred to a fresh tube. The total protein content was quantified with a Bradford assay, and a total of 20 ug of protein was mixed with Laemmli buffer (4% SDS, 5% 2-mercaptoethanol (BME), 20% glycerol, 0.004% bromophenol blue, 0.125 M Tris HCl, pH 6.8) and denatured for 10 minutes at 95° C. This was followed by wet transfer to PVDF immobilon membrane (Millipore IPFL00010) and blocked with Odyssey TBS blocking buffer (LiCor 927-50000). […] Bands were quantified and normalized by a ratio of LC3-II:GAPDH, rather than LC3-II:LC3-I as LC3-II is more sensitive in blotting and accurate observed alone.
as §2

ACS1028-derived ECs = experiment: Mitophagy inducing drug experiment, cell number by total Hoechst signal; conditions: all concentrations, by passage 1
Description: (§4) The effect of increasing mitophagy in iPSC-ECs was evaluated.

CD144 and CD31 = experiment: Immunostaining for CD144 and CD31 and morphology of iPSC-ECs; assay type: cell-based, human; conditions: ACS1028 and Y6 iPSC-ECs
Description: Immunostaining was performed by fixing cells in 4% paraformaldehyde for 15 minutes at room temperature and then washing with PBS. Cells were then permeabilized with 70% ice cold ethanol on ice and blocked with 0.5% BSA in PBS for 15 minutes at room temperature. Cells were then incubated overnight at 4° C. with the primary antibody in antibody dilution buffer (0.05% BSA in PBS) at the following concentrations: Nanog (Life Technologies PA1-097, 1:100), SSEA4 (Life Technologies 414000, 1:400), Sox2 (Life Technologies PA1-16968, 1:100), VE-cadherin/CD144 (Sigma V1514, 1:200), PECAM1/CD31 (Abcam ab187377, 1:100). The isotype control antibodies used in this study were mouse IgG1 (Abcam ab172730) and rabbit serum. Cells were washed with PBS and incubated with conjugated secondary antibodies at room temperature in the dark (Life Technologies, 1:300).

Y6-derived ECs = experiment: Mitophagy inducing drug experiment, cell number by total Hoechst signal; conditions: all concentrations, by passage 1
Description: as §4

Opal = experiment: Western blotting, Opal expression in iPSC-ECs; assay type: cell-based; conditions: human iPSC-derived endothelial cells
From the text: (§3) Milk solution was removed, and membranes rinsed in TBST. […] ECL was applied for chemiluminescence. Imaging was done using Bio-Rad imager.

Drp1 = experiment: Western blotting, phosphorylation of Drp1 in iPSC-ECs; assay type: cell-based; conditions: human iPSC-derived endothelial cells
From the text: as §3

PKM2 = experiment: Western blotting, phosphorylation of PKM2 in iPSC-ECs; assay type: cell-based, human; conditions: particularly under bafilomycin treated conditions
From the text: as §3

SIRT1 = experiment: Western blotting, SIRT1 expression in iPSC-ECs; assay type: cell-based; conditions: human iPSC-derived endothelial cells
From the text: as §3

ACS1028-ECs [2] = experiment: Cell proliferation assay (EdU labeling) of iPSC-ECs over serial passages; assay type: cell-based, human
Description: Proliferating cells were labeled with EdU using the Invitrogen Click-iT microplate assay kit (Invitrogen C10214), without the use of the Amplex Ultra red step. Cells were labeled for 24 hours with 10 μM EdU or DMSO as a vehicle control. Cells were fixed and prepared according to the manufacturer's instructions, minus the Amplex Ultra red labeling. Hoechst 33342 was added at 5 μg/mL (Invitrogen H1399), and labeled cells were imaged on a Zeiss inverted fluorescence microscope. Four tiled images at 10× magnification were collected per each well of 3 biological replicates per condition and stitched together as a single image per well for analysis. EdU-labeled and total nuclei were counted in Fiji.
as §1

Parkin = experiment: Western blotting, Parkin expression in iPSC-ECs; assay type: cell-based, human; conditions: particularly under bafilomycin treated conditions
From the text: as §3

PDH = experiment: Western blotting, PDH expression in iPSC-ECs; assay type: cell-based, human; conditions: particularly under bafilomycin treated conditions
From the text: as §3

[3] = test system: endothelial nitric oxide synthase; experiment: Western blotting, phosphorylation of endothelial nitric oxide synthase in iPSC-ECs; assay type: cell-based; conditions: human iPSC-derived endothelial cells
From the text: as §3

Description for cleaved caspase 3: Utilizing 8%, 10%, and 14% polyacrylamide gels, samples were run at 150V for 1 to 2 hours in SDS-Tris-Glycine buffer. Gels were then transferred to nitrocellulose membrane for two and half hours at 0.35 Amps in Tris-Glycine transfer buffer. After transfer nitrocellulose membranes were blocked in 10% milk/TBST solution for 1 hr. Milk solution was removed, and membranes rinsed in TBST. Blocked membranes were cut and placed in primary antibody solution (5% BSA/TBST) overnight. After incubation with primary antibody incubation membranes were washed with TBST for 5 mins 3X. Secondary antibody incubation (Rabbit 1:1000) in 5% BSA solution was applied for 2 hrs. After secondary antibody incubation membranes were washed with TBST for 15 mins 3X. ECL was applied for chemiluminescence. Imaging was done using Bio-Rad imager.

With `NCCCCNCCCN` [spermidine] the “residual cells, Trypan blue” value (ACS1028-ECs [1]; purified ACS1028-ECs incubated overnight with Trypan blue) was “no residual cells” and the “presence of cells by light microscopy” value (ACS1028-ECs [1]; purified ACS1028-ECs, versus control and DMSO-vehicle control) was “no cells visible”.
In the case of `CNC(=O)c1ccccc1Oc1nc(Nc2cc(OC)c(OC)c(OC)c2)ncc1Br` [SBI-0206965], the “LC3-II level by Western blotting, co-treatment with Rg2” value (LC3-II; passage 3, SBI-0206965 at any concentration added to Rg2) is reported as “reduced”, the “presence of cells by light microscopy” value (ACS1028-ECs [1]) is reported as “no cells visible” and the “residual cells, Trypan blue” value (ACS1028-ECs [1]) is reported as “no residual cells”. The “cell survival (cells per high power field), co-treatment with Rg2” value (ACS1028-ECs [1]; 10 μM (highest concentration) in the presence of 200 μM Rg2, passages 2 and 3) was “almost no surviving cells”, the cell survival (ACS1028-ECs [1]; purified ACS1028-ECs) was “no cells surviving to passage 1” and the “cell survival (cells per high power field), co-treatment with Rg2” value (ACS1028-ECs [1]; varying concentrations of SBI-0206965 in the presence of 200 μM Rg2, survival to passage 3) was “fewer cells surviving when treated with higher concentrations; also recorded: statistically significant reduction in cell survival in a dose-dependent manner”.
For `N#CC(C#N)=NNc1ccc(OC(F)(F)F)cc1` [FCCP], the “cell loss / cell survival (total Hoechst signal)” value (“cell loss / cell survival” for short) (ACS1028-derived ECs) was “high levels of cell loss” and the “CD144 and CD31 expression and typical morphology (mature endothelial cell phenotype)” value (CD144 and CD31) was “accelerated loss of mature endothelial cell phenotype”.
Antimycin A was tested, and the “cell loss / cell survival” value (ACS1028-derived ECs) was “high levels of cell loss; also recorded: decreased cell survival”, the “CD144 and CD31 expression and typical morphology (mature endothelial cell phenotype)” value (CD144 and CD31) was “accelerated the loss of CD144 and CD31 as well as typical morphology” and the “cell survival (total Hoechst signal)” value (Y6-derived ECs) was “decreased cell survival”.
`N=c1c2c(-c3ccccc3)c(-c3ccccc3)n(Cc3ccccc3)c2ncn1[C@H]1CC[C@H](O)CC1` [ML246] was tested, and the “presence of cells by light microscopy” value (ACS1028-ECs [1]) was “no cells visible” and the “residual cells, Trypan blue” value (ACS1028-ECs [1]) was “no residual cells”.
In the case of `CC(C)=CCC[C@](C)(O)[C@H]1CC[C@]2(C)[C@@H]1[C@H](O)C[C@@H]1[C@@]3(C)CC[C@H](O)C(C)(C)[C@@H]3[C@@H](O[C@@H]3O[C@H](CO)[C@@H](O)[C@H](O)[C@H]3O[C@@H]3O[C@@H](C)[C@H](O)[C@@H](O)[C@H]3O)C[C@]12C` [Rg2], the “expression of Opal (mitochondrial fusion)” value (Opal) is reported as “increased”, the “phosphorylation of Drp1 (mitochondrial fission)” value (Drp1) is reported as “increased phosphorylation of Drp1” and the “apoptosis (cleaved caspase 3)” value (cleaved caspase 3) is reported as “no increase in cleaved caspase 3”. The “phosphorylation of PKM2” value (PKM2) was “increased phosphorylation of PKM2”, the “LC3-II level by Western blotting” value (LC3-II; passage 3, Rg2 treated vs DMSO) was “increase in LC3-II level” and the SIRT1 expression (SIRT1) was “increased expression of longevity protein SIRT1 in a dose-dependent manner”. The “persistence of the proliferation benefit over serial passages” value (ACS1028-ECs [2]; serial passages, experiment terminated at passage 3) was “persisted through passage 3; also recorded: sustained through passage 3”, the “proliferation (EdU labeled cells)” value (ACS1028-ECs [2]; versus DMSO vehicle control and rapamycin, ML246, Antimycin A or oligomycin) was “increased rate of proliferation; also recorded: statistically significant improvement in proliferation” and the “Parkin (mitophagy marker) expression” value (Parkin) was “increased Parkin expression; also recorded: slightly increases”. The cell survival (ACS1028-ECs [1]; purified ACS1028-ECs) was “improved cell survival”, the “expression of PDH” value (PDH) was “increased” and the “phosphorylation (activity) of endothelial nitric oxide synthase” value [3] was “increased phosphorylation”.
`CC[C@H]1/C=C/C=C/C[C@@H](C)[C@H](O)[C@@](C)(O)C(=O)[C@@H](C)[C@H](O)[C@@H](C)C(=O)[C@@H](C)[C@H](O)[C@@H](C)/C=C/C(=O)O[C@@H]2[C@H](C)[C@H](CC1)O[C@]1(CC[C@H](C)[C@H](C[C@@H](C)O)O1)[C@H]2C` [oligomycin] was tested, and the “cell loss / cell survival” value (ACS1028-derived ECs) was “high levels of cell loss; also recorded: decreased cell survival”, the “CD144 and CD31 expression and typical morphology (mature endothelial cell phenotype)” value (CD144 and CD31) was “accelerated the loss of CD144 and CD31 as well as typical morphology” and the “cell survival (total Hoechst signal)” value (Y6-derived ECs) was “decreased cell survival”.
In the case of `Oc1ccc(C=Cc2cc(O)cc(O)c2)cc1` [resveratrol], the “presence of cells by light microscopy” value (ACS1028-ECs [1]) is reported as “no cells visible”, the “residual cells, Trypan blue” value (ACS1028-ECs [1]) is reported as “no residual cells” and the cell survival (ACS1028-ECs [1]; purified ACS1028-ECs) is reported as “no cells surviving to passage 1”.
